The numbers were not newly measured in patent US20080021016A1, “Combined Pharmaceutical Composition for the Inhibition of the Decline of Cognitive Functions” (priority 2004, published 2008), which cites them from elsewhere.

One data set addresses T1, central 5-HT2C receptors (Homo sapiens, UniProt P28335).
T1 sequence (P28335 33-458): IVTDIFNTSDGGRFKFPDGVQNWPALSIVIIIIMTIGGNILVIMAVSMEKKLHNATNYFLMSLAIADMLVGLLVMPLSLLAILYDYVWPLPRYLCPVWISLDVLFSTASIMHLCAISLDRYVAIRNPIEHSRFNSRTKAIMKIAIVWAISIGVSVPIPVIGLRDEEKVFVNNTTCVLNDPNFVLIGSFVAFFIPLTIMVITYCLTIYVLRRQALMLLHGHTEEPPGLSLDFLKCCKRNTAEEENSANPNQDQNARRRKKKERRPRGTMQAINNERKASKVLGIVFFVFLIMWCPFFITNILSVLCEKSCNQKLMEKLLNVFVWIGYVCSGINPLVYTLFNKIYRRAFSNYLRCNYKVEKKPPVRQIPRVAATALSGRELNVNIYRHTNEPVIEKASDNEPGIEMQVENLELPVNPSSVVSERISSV

For data set [1] the following is noted: 1 and 10 mg/kg after oral administration.
In the next data set the target is central 5-HT2A receptors (Homo sapiens, UniProt P28223).
For data set [2] the following is noted: single 0.7 mg/kg oral treatment.
The conditions of data set [3]: 10 and 30 mg/kg after oral treatment.
The conditions of data set [4]: single oral dose of 3 mg/kg sc.

Chain of central 5-HT2A receptors (P28223 whole entry): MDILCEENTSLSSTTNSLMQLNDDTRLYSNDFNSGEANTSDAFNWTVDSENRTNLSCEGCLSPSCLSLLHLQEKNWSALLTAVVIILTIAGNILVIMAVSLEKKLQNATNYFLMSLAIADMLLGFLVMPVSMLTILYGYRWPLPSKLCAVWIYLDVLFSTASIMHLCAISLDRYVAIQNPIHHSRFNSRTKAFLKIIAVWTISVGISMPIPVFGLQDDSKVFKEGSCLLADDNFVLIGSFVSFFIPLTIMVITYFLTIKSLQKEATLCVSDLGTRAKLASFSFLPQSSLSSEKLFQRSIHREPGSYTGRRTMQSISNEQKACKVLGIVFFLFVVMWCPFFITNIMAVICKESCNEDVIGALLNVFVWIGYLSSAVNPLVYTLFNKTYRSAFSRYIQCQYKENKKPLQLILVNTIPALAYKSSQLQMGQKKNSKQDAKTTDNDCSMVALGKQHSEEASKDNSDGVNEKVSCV

As for “(1R,2S,4R)-(-)-2-[N,N-(dimethylaminoethoxy)]-2-phenyl-1,7,7-trimethylbicyclo[2.2.1]heptane [deramciclane]”, on central 5-HT2C receptors, the “binding to central 5-HT2C receptors” value is reported as “significantly bound”. Moreover, the “activity in the Vogel punished drinking test” value in data set [1] is recorded as “active”. The “binding to central 5-HT2A receptors” value on central 5-HT2A receptors is given as “significantly bound”. For the same substance, in data set [2], the “time spent with social interactions” value was “increased the time spent with social interactions”. Further, in data set [3], the “activity in the marble burying model” value is “active”. For the same substance, the “activity in the light-dark model” value in data set [4] is recorded as “active”.
